Results taken from ChEMBL document CHEMBL1201861, “Genomics of Drug Sensitity in Cancer screening data, Wellcome Trust Sanger Institute”.

How the values were obtained:
Assay in all cases: cells
RVH-421 = type: functional, cell-based; conditions: Homo sapiens
Description: SANGER: Inhibition of human RVH-421 cell growth in a cell viability assay.

SK-OV-3 = type: functional, cell-based; conditions: Homo sapiens;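 note: growth inhibition of SK-OV-3 human cells, read out with a cell viability assay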
Description: SANGER: Inhibition of human SK-OV-3 cell growth in a cell viability assay.

C-33-A = type: functional, cell-based; conditions: Homo sapiens;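 note: cell viability assay measuring growth inhibition of C-33-A cells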
Description: SANGER: Inhibition of human C-33-A cell growth in a cell viability assay.

HCC1954 = type: functional, cell-based; conditions: Homo sapiens;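 note: growth inhibition of human HCC1954 cells, read out with a cell viability assay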
Description: SANGER: Inhibition of human HCC1954 cell growth in a cell viability assay.

KYSE-140 = type: functional, cell-based; conditions: Homo sapiens;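 note: cell viability assay measuring growth inhibition in human KYSE-140 cells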
Description: SANGER: Inhibition of human KYSE-140 cell growth in a cell viability assay.

A204 = type: functional, cell-based; conditions: Homo sapiens;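 note: growth inhibition of human A204 cells, read out with a cell viability assay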
Description: SANGER: Inhibition of human A204 cell growth in a cell viability assay.

A-431 = type: functional, cell-based; conditions: Homo sapiens;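 note: growth inhibition of A-431 cells, determined with a cell viability read-out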
Description: SANGER: Inhibition of human A431 cell growth in a cell viability assay.

VM-CUB-1 = type: functional, cell-based; conditions: Homo sapiens;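 note: cell viability assay measuring growth inhibition of the human VM-CUB-1 cell line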
Description: SANGER: Inhibition of human VM-CUB-1 cell growth in a cell viability assay.

SK-MEL-30 = type: functional, cell-based; conditions: Homo sapiens;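 note: growth inhibition of SK-MEL-30 cells, determined with a cell viability assay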
Description: SANGER: Inhibition of human SK-MEL-30 cell growth in a cell viability assay.

647-V = type: functional, cell-based; conditions: Homo sapiens;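 note: growth inhibition of 647-V cells, read out with a cell viability assay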
Description: SANGER: Inhibition of human 647-V cell growth in a cell viability assay.

SBC-5 = type: functional, cell-based; conditions: Homo sapiens;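 note: cell viability assay read-out, IC50 is the concentration that inhibits growth of the cells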
Description: SANGER: Inhibition of human SBC-5 cell growth in a cell viability assay.

NCI-H2170 = type: functional, cell-based; conditions: Homo sapiens;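 note: cell viability assay measuring growth inhibition of human NCI-H2170 cancer cells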
Description: SANGER: Inhibition of human NCI-H2170 cell growth in a cell viability assay.

SW1783 = type: functional, cell-based; conditions: Homo sapiens;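 note: cell growth inhibition measured with a viability assay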
Description: SANGER: Inhibition of human SW1783 cell growth in a cell viability assay.

A-375 = type: functional, cell-based; conditions: Homo sapiens;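 note: growth inhibition of A375 cells, read out with a cell viability assay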
Description: SANGER: Inhibition of human A375 cell growth in a cell viability assay.

769-P = type: functional, cell-based; conditions: Homo sapiens
Description: SANGER: Inhibition of human 769-P cell growth in a cell viability assay.

CaR-1 = type: functional, cell-based; conditions: Homo sapiens;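 note: growth inhibition of human CaR-1 cancer cells, read out with a cell viability assay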
Description: SANGER: Inhibition of human CaR-1 cell growth in a cell viability assay.

SK-MEL3 = type: functional, cell-based, SK-MEL-3; conditions: Homo sapiens;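 note: growth inhibition of human SK-MEL-3 cells, read out with a cell viability assay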
Description: SANGER: Inhibition of human SK-MEL-3 cell growth in a cell viability assay.

SW780 = type: functional, cell-based; conditions: Homo sapiens;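 note: growth inhibition of the cells, read out with a cell viability assay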
Description: SANGER: Inhibition of human SW780 cell growth in a cell viability assay.

IGROV-1 = type: functional, cell-based; conditions: Homo sapiens;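 note: reduction of IGROV-1 cell growth, read out with a viability assay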
Description: SANGER: Inhibition of human IGROV-1 cell growth in a cell viability assay.

CAL-33 = type: functional, cell-based; conditions: Homo sapiens;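 note: growth inhibition of CAL-33 cells, read out with a cell viability assay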
Description: SANGER: Inhibition of human CAL-33 cell growth in a cell viability assay.

8505C = type: functional, cell-based; conditions: Homo sapiens
Description: SANGER: Inhibition of human 8505C cell growth in a cell viability assay.

SW48 = type: functional, cell-based; conditions: Homo sapiens;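 note: growth inhibition of SW48 cells, read out with a cell viability assay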
Description: SANGER: Inhibition of human SW48 cell growth in a cell viability assay.

SAOS-2 = type: functional, cell-based; conditions: Homo sapiens;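 note: growth inhibition of human Saos-2 cells determined by a cell viability assay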
Description: SANGER: Inhibition of human Saos-2 cell growth in a cell viability assay.

NB7 = type: functional, cell-based, Homo sapiens; conditions: Homo sapiens, NB7;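 note: growth inhibition of NB7 cells, read out with a cell viability assay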
Description: SANGER: Inhibition of human NB7 cell growth in a cell viability assay.

AN3-CA = type: functional, cell-based; conditions: Homo sapiens;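 note: growth inhibition of human AN3-CA cells measured by a cell viability assay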
Description: SANGER: Inhibition of human AN3-CA cell growth in a cell viability assay.

SW756 = type: functional, cell-based; conditions: Homo sapiens;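 note: growth inhibition of human SW756 cells, read out with a cell viability assay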
Description: SANGER: Inhibition of human SW756 cell growth in a cell viability assay.

MOLT-13 = type: functional, cell-based; conditions: Homo sapiens;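 note: IC50 for suppression of MOLT-13 cell growth, read out with a cell viability assay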
Description: SANGER: Inhibition of human MOLT-13 cell growth in a cell viability assay.

Ca-Ski = type: functional, cell-based; conditions: Homo sapiens;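 note: cell viability assay measuring inhibition of Ca-Ski cell growth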
Description: SANGER: Inhibition of human Ca-Ski cell growth in a cell viability assay.

A 172 = type: functional, cell-based; conditions: Homo sapiens;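 note: growth inhibition of A172 cells, measured with a cell viability readout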
Description: SANGER: Inhibition of human A172 cell growth in a cell viability assay.

SK-HEP1 = type: functional, cell-based, SK-HEP-1; conditions: Homo sapiens;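 note: cell viability readout used to quantify reduction in proliferation of human SK-HEP-1 cells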
Description: SANGER: Inhibition of human SK-HEP-1 cell growth in a cell viability assay.

PC-3 = type: functional, cell-based; conditions: Homo sapiens;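 note: cell viability assay measuring growth inhibition of PC-3 cells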
Description: SANGER: Inhibition of human PC-3 cell growth in a cell viability assay.

639-V = type: functional, cell-based; conditions: Homo sapiens;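 note: growth inhibition of 639-V cells, read out with a cell viability assay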
Description: SANGER: Inhibition of human 639-V cell growth in a cell viability assay.

CAL-120 = type: functional, cell-based; conditions: Homo sapiens;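 note: cell growth inhibition, read out as cell viability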
Description: SANGER: Inhibition of human CAL-120 cell growth in a cell viability assay.

NCI-H596 = type: functional, cell-based; conditions: Homo sapiens;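 note: growth inhibition of NCI-H596 cells, read out with a cell viability assay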
Description: SANGER: Inhibition of human NCI-H596 cell growth in a cell viability assay.

HT-1376 = type: functional, cell-based; conditions: Homo sapiens
Description: SANGER: Inhibition of human HT-1376 cell growth in a cell viability assay.

EW-24 = type: functional, cell-based, Homo sapiens; conditions: Homo sapiens, EW-24;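 note: human EW-24 cancer cell line, growth inhibition read out via a cell viability assay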
Description: SANGER: Inhibition of human EW-24 cell growth in a cell viability assay.

HCC1395 = type: functional, cell-based; conditions: Homo sapiens;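 note: growth inhibition of HCC1395 cells, read out by a cell viability assay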
Description: SANGER: Inhibition of human HCC1395 cell growth in a cell viability assay.

NCI-H661 = type: functional, cell-based; conditions: Homo sapiens;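 note: cell viability assay read-out, IC50 being the concentration that inhibits growth of the cells by half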
Description: SANGER: Inhibition of human NCI-H661 cell growth in a cell viability assay.

DK-MG = type: functional, cell-based; conditions: Homo sapiens;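 note: growth inhibition of DK-MG cells, read out with a cell viability assay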
Description: SANGER: Inhibition of human DK-MG cell growth in a cell viability assay.

DMS-273 = type: functional, cell-based; conditions: Homo sapiens
Description: SANGER: Inhibition of human DMS-273 cell growth in a cell viability assay.

HT1197 = type: functional, cell-based, HT-1197; conditions: Homo sapiens
Description: SANGER: Inhibition of human HT-1197 cell growth in a cell viability assay.

LB373-MEL-D = type: functional, cell-based, Homo sapiens; conditions: Homo sapiens, LB373-MEL-D;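 note: growth inhibition of the cell line, read out in a cell viability assay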
Description: SANGER: Inhibition of human LB373-MEL-D cell growth in a cell viability assay.

NCI-H1703 = type: functional, cell-based; conditions: Homo sapiens;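 note: growth inhibition of NCI-H1703 cells, read out via a cell viability assay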
Description: SANGER: Inhibition of human NCI-H1703 cell growth in a cell viability assay.

NCI-H2052 = type: functional, cell-based; conditions: Homo sapiens;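 note: growth inhibition of NCI-H2052 cells, read out with a cell viability assay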
Description: SANGER: Inhibition of human NCI-H2052 cell growth in a cell viability assay.

HGC-27 = type: functional, cell-based; conditions: Homo sapiens;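 note: growth inhibition of human HGC-27 cells, read out in a cell viability assay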
Description: SANGER: Inhibition of human HGC-27 cell growth in a cell viability assay.

CN(NC(=O)CC(=O)NN(C)C(=S)c1ccccc1)C(=S)c1ccccc1 [ELESCLOMOL]
IC50 (RVH-421): 76.2 nM
IC50 (SK-OV-3): 3.75 nM
IC50 (C-33-A): 7.58 nM
IC50 (HCC1954): > 200 nM
IC50 (KYSE-140): 21 nM
IC50 (A204): 8.85 nM
IC50 (A-431): 126 nM
IC50 (VM-CUB-1): 12.7 nM
IC50 (SK-MEL-30): > 200 nM
IC50 (647-V): 6.9 nM
IC50 (SBC-5): 21.6 nM
IC50 (NCI-H2170): 28.8 nM
IC50 (SW1783): 139 nM
IC50 (A-375): 4.14 nM
IC50 (769-P): 9.82 nM
IC50 (CaR-1): > 200 nM
IC50 (SK-MEL3): > 200 nM
IC50 (SW780): 30.3 nM
IC50 (IGROV-1): 104 nM
IC50 (CAL-33): 22.2 nM
IC50 (8505C): 10.5 nM
IC50 (SW48): 108 nM
IC50 (SAOS-2): 11.1 nM
IC50 (NB7): 14.4 nM
IC50 (AN3-CA): 10.8 nM
IC50 (SW756): 4.13 nM
IC50 (MOLT-13): > 200 nM
IC50 (Ca-Ski): > 200 nM
IC50 (A 172): 20.9 nM
IC50 (SK-HEP1): > 200 nM
IC50 (PC-3): 7.89 nM
IC50 (639-V): 16.7 nM
IC50 (CAL-120): 14 nM
IC50 (NCI-H596): 44.8 nM
IC50 (HT-1376): > 200 nM
IC50 (EW-24): 3.83 nM
IC50 (HCC1395): 8.47 nM
IC50 (NCI-H661): 12.5 nM
IC50 (DK-MG): 17.1 nM
IC50 (DMS-273): 7.06 nM
IC50 (HT1197): 21.8 nM
IC50 (LB373-MEL-D): 14.7 nM
IC50 (NCI-H1703): 3.68 nM
IC50 (NCI-H2052): 63.3 nM
IC50 (HGC-27): 7.59 nM
